From patent US11236085B2, “PD-1/PD-L1 inhibitors” (Gilead Sciences, Inc., priority 2018, dated 2022)

How the values were obtained:
PD-L1 = target: T1, PD-L1 (Homo sapiens, UniProt Q9NZQ7); test: PD-L1/PD-L1 dimerization biochemical protein-protein interaction assay (ALPHA); conditions: 0.5 nM His tagged PD-L1 and 0.5 nM FLAG tagged PD-L1; compound induced dimerization; read-out: AC50 PDL1 Dimer 1 nM
T1 construct: determine if they can specifically dimerize the extracellular domains of PD-L1
Method: PD-L1/PD-L1 Dimerization Biochemical Protein-Protein Interaction Assay
Compounds were tested in biochemical protein-protein interaction assays to determine if they can specifically dimerize the extracellular domains of PD-L1. Dimerization of the proteins (His-tagged PD-L1 and FLAG-tagged PD-L1) is measured using a bead based Amplified Luminescent Proximity Homogeneous Assay (ALPHA) platform. […] Assays are performed in 25 mM Hepes (pH 7.4), 150 mM NaCl, 3.4 mM EDTA, 0.005% Tween 20, and 0.01% BSA. Final protein concentration in the assays were 0.5 nM (His tagged PD-L1) and 0.5 nM (FLAG tagged PD-L1). After an assay reaction time of 2 hours at 25° C., 20 μg/mL (final assay concentration) ALPHA assay acceptor beads (anti-His coated) were added and incubated for 60 minutes at 25° C. Binding was measured following a final 60 minute incubation with 40 μg/mL (final assay concentration) ALPHA assay donor beads (anti-FLAG coated). AC50 values were calculated from the fit of the dose-response curves to a four-parameter equation (Table 4).

PD-1/PD-L1 [1] = target: T2, PD-1/PD-L1 (Homo sapiens, UniProt Q9NZQ7); test: PD-1/PD-L1 biochemical protein-protein interaction assay (ALPHA); type: binding; conditions: 0.3 nM His tagged PD-L1, 2.5 nM biotinylated Fc-PD-1; 60 minutes at 25° C.; read-out: IC50 PD-L1-PD1
Method: PD-1/PD-L1 & CTLA/CD80 Biochemical Protein-Protein Interaction Assay
Compounds were tested in biochemical protein-protein interaction assays to determine if they can specifically block the interaction between the extracellular domains of PD-1/PD-L1 or CTLA/CD80. Binding of the protein pairs is measured using a bead based Amplified Luminescent Proximity Homogeneous Assay (ALPHA) platform. Binding of each protein pair results in proximity of the donor and acceptor beads which leads to an increase in ALPHA signal. Disruption of the protein-protein interaction with a test compound results in a decrease in ALPHA signal. Assays are performed in 25 mM Hepes (pH 7.4), 150 mM NaCl, 3.4 mM EDTA, 0.005% Tween 20, and 0.01% BSA. Final protein concentration in the assays were 0.3 nM (His tagged PD-L1), 2.5 nM (biotinylated Fc-PD-1), 1 nM (His tagged CTLA4) and 1 nM (biotinylated CD80). After an assay reaction time of 60 minutes at 25° C., binding was measured with addition of 20 μg/mL ALPHA assay acceptor beads (anti-His coated) and 20 µg/mL ALPHA assay donor beads (streptavidin coated). IC50 values were calculated from the fit of the dose-response curves to a four-parameter equation. Representative data are shown below in Table 3.
Target sequence in this assay (Q9NZQ7 19-238 limits assumed): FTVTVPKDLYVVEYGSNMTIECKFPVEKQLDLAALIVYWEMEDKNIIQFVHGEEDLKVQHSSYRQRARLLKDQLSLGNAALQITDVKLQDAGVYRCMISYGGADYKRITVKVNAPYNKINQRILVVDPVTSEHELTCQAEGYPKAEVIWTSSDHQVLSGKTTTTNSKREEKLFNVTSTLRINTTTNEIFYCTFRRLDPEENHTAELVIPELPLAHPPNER

PD-1/PD-L1 [2] = target: T2, PD-1/PD-L1; test: PD-1/PD-L1 NFAT reporter assay (co-culture of aAPC-PD-L1 CHO cells and Jurkat cells overexpressing PD-1, NFAT luciferase); type: cell-based; parameters: expressed in transfected cells; host or cells: CHO cells (aAPC-PD-L1) co-cultured with Jurkat cells overexpressing PD-1; conditions: co-culture incubated for 6 hrs at 37° C.; luciferase under NFAT control
Method: PD-1/PD-L1 NFAT Reporter Assay
Compounds were tested in a functional co-culture reporter assay in which TCR-mediated NFAT activity is inhibited by the engagement of PD-1 with PD-L1. […] CHO cells expressing surface-bound anti-CD3 antibodies and PD-L1 (artificial antigen presenting cells, aAPC-PD-L1) were first seeded overnight. Jurkat cells overexpressing PD-1 and expressing a luciferase construct under NFAT control are diluted in RPMI assay medium (RPMI 1640 with 2% FBS), mixed with compounds, and immediately seeded on the monolayer of aAPC-PD-L1. The co-culture is then incubated for 6 hrs at 37° C. Luciferase activity is assessed by adding the ONE-Glo reagent and measuring luminescence with a plate reader. EC50 values are calculated from the fit of the dose-response curves to a four-parameter equation (Table 4).
Target sequence in this assay (Q9NZQ7 19-290): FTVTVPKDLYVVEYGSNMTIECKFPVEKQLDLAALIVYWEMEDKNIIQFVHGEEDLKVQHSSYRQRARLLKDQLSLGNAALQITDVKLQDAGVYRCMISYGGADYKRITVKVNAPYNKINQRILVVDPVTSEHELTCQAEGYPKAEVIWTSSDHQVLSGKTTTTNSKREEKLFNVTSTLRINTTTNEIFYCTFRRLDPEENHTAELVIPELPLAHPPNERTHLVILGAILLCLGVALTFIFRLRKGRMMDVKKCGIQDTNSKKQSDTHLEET

T1 sequence (Q9NZQ7 19-238 limits assumed): as the sequence (Q9NZQ7 19-238 limits assumed) above
T1 sequence (Q9NZQ7 19-238 limits assumed): as above

| Structure (SMILES) | AC50 (PD-L1) | IC50 (PD-1/PD-L1 [1]) | EC50 (PD-1/PD-L1 [2]) |
| --- | --- | --- | --- |
| COc1nc(-c2cccc(-c3cccc(-c4ccc5c(c4)OCCNC5)c3Cl)c2Cl)ccc1CNC[C@@H](O)CC(=O)O [Compound 6] | 301 nM | 0.427 nM | 170 nM |
| COc1nc(-c2cccc(-c3cccc(-c4nc5n(n4)CCNC5)c3Cl)c2Cl)ccc1CNC[C@@H]1CCC(=O)N1 [Compound 30] | 690 nM | 0.247 nM | 148 nM |
| C[C@](CO)(NCc1cc(Cl)c(OCc2cccc(-c3cccc(-c4ccc5c(c4)CNCC5)c3Cl)c2Cl)nc1OCc1cncc(C#N)c1)C(=O)O [Compound 29] | 31.5 nM | 0.368 nM | 200 nM |
| C[C@](CO)(NCc1cc(Br)c(OCc2cccc(-c3cccc(-c4ccc5c(c4)CNCC5)c3Cl)c2Cl)nc1OCc1cncc(C#N)c1)C(=O)O [Compound 21] | 28.3 nM | 0.23 nM | 166 nM |
| Cc1c(COc2cc(OCc3cncc(C#N)c3)c(CN[C@@](C)(CO)C(=O)O)cc2Cl)cccc1-c1cccc(-c2ccc3c(c2)C2CCC(C3)N2)c1C (stereo partly drawn) [Compound 24] | 41.3 nM | 0.086 nM | 184 nM |
| CC(=O)NCC1Cc2ccc(-c3cccc(-c4cccc(COc5cc(OCc6cncc(C#N)c6)c(CN[C@@](C)(CO)C(=O)O)cc5Cl)c4C)c3C)cc2CN1 (stereo partly drawn) [Compound 26] | 48.9 nM | 0.064 nM | 174 nM |
| Cc1c(COc2cc(OCc3cncc(C#N)c3)c(CN[C@@](C)(CO)C(=O)O)cc2Cl)cccc1-c1cccc(-c2ccc3c(c2)CNCC3N)c1C (stereo partly drawn) [Compound 18] | 54.9 nM | 0.158 nM | 73 nM |
| COc1nc(-c2cccc(-c3cccc(-c4cc5c(s4)CCNC5)c3Cl)c2Cl)ccc1CNC[C@@H]1CCC(=O)N1 [Compound 33] | 145 nM | 1.04 nM | 170 nM |
| COc1nc(-c2cccc(-c3cccc(-c4cc5c(s4)CCNC5)c3Cl)c2Cl)ccc1CN1CC2(CCC(=O)N2)C1 [Compound 32] | 181 nM | 1.14 nM | 288 nM |
| Cc1c(COc2cc(OCc3cncc(C#N)c3)c(CN[C@@](C)(CO)C(=O)O)cc2Cl)cccc1-c1cccc(-c2ccc3c(c2)CNCC3O)c1C (stereo partly drawn) [Compound 3] | 76.9 nM | 0.064 nM | 123 nM |
| COc1nc(O[C@H]2CCc3c(-c4cccc(-c5ccc6c(n5)CCNC6)c4Cl)cccc32)c(C(F)(F)F)cc1CN1CC[C@@H](C(=O)O)C1 [Compound 1, (R)-1-((6-(((S)-4-(2-chloro-3-(5,6,7,8-tetrahydro-1,6-naphthyridin-2-yl)phenyl)-2,3-dihydro-1H-inden-1-yl)oxy)-2-methoxy-5-(trifluoromethyl)pyridin-3-yl)methyl)pyrrolidine-3-carboxylic acid] | 135 nM | 0.064 nM | 1260 nM |
| Cc1c(COc2cc(OCc3cncc(C#N)c3)c(CN[C@@](C)(CO)C(=O)O)cc2Cl)cccc1-c1cccc(-c2ccc3c(c2)CNCC3NC(=O)NCC#N)c1C (stereo partly drawn) [Compound 16] | 30.9 nM | 0.09 nM | 102 nM |
| Cc1c(COc2cc(OCc3cncc(C#N)c3)c(CNC[C@@H](O)CC(=O)O)cc2Cl)cccc1-c1cccc(-c2ccc3c(c2)NC(=O)CNC3)c1C [Compound 11] | 599 nM | 0.686 nM | 178 nM |
| Cc1c(COc2cc(OCc3cncc(C#N)c3)c(CNC[C@@H](O)CC(=O)O)cc2Cl)cccc1-c1cccc(-c2ccc3c(c2)CNCC3NC(=O)NCC#N)c1C (stereo partly drawn) [Compound 17] | 31.6 nM | 0.174 nM | 128 nM |
| COc1nc(-c2cccc(-c3cccc(-c4cc5c(s4)CNCC5)c3Cl)c2Cl)ccc1CNC[C@@H]1CCC(=O)N1 [Compound 34] | 174 nM | 1.13 nM | 163 nM |
| Cc1c(COc2cc(OCCCC#N)c(CN[C@@](C)(CO)C(=O)O)cc2Cl)cccc1-c1cccc(-c2ccc3c(c2)CNCC3)c1C [Compound 9] | 63.8 nM | 0.126 nM | 173 nM |
| Cc1c(COc2cc(OCc3cncc(C#N)c3)c(CN[C@@](C)(CO)C(=O)O)cc2Cl)cccc1-c1cccc(-c2ccc3c(c2)CNCC3NC(=O)NC2CC2)c1C (stereo partly drawn) [Compound 14] | 10.7 nM | 0.064 nM | 69 nM |
| CNC(=O)NC1CNCc2cc(-c3cccc(-c4cccc(COc5cc(OCc6cncc(C#N)c6)c(CNC[C@@H](O)CC(=O)O)cc5Cl)c4C)c3C)ccc21 (stereo partly drawn) [Compound 20] | 20.8 nM | 0.064 nM | 95 nM |
| COc1nc(-c2cccc(-c3cccc(-c4nc5c(s4)CNCC5)c3Cl)c2Cl)ccc1CNCCO [Compound 31] | 314 nM | 0.431 nM | 674 nM |
| Cc1c(COc2cc(OCc3cncc(C#N)c3)c(CN[C@@](C)(CO)C(=O)O)cc2Cl)cccc1-c1cccc(-c2ccc3c(c2)NC(=O)CNC3)c1C [Compound 10] | 249 nM | 0.187 nM | 103 nM |
| C[C@@](CO)(NCc1cc(Cl)c(OCc2cccc(-c3cccc(-c4ccc5c(c4)CNCC5)c3Cl)c2Cl)nc1OCc1cc(C#N)cc(C#N)c1)C(=O)O [Compound 28] | 39.7 nM | 0.367 nM | 161 nM |
| Cc1c(COc2cc(OCc3cncc(C#N)c3)c(CN[C@@](C)(CO)C(=O)O)cc2Cl)cccc1-c1cccc(-c2ccc3c(c2)CNCC3)c1C [Compound 5] | 57 nM | 0.136 nM | 134 nM |
| Cc1c(COc2cc(OCc3cncc(C#N)c3)c(CNC[C@@H](O)CC(=O)O)cc2Cl)cccc1-c1cccc(-c2ccc3c(c2)CNCC3NC(=O)NC2CC2)c1C (stereo partly drawn) [Compound 13] | 26.9 nM | 0.147 nM | 90 nM |
| COc1nc(-c2cccc(-c3cccc(-c4cc5c(cn4)CNC5)c3Cl)c2Cl)ccc1CNC[C@@H]1CCC(=O)N1 [Compound 23] | 272 nM | 0.318 nM | 202 nM |
| COc1nc(-c2cccc(-c3cccc(-c4nc5c(s4)CNCC5)c3Cl)c2Cl)ccc1CNC[C@@H]1CCC(=O)N1 [Compound 35] | 281 nM | 0.814 nM | 105 nM |
| C[C@](CO)(NCc1cc(Cl)c(OCc2cccc(-c3cccc(-c4ccc5c(c4)CNCC5)c3Cl)c2Cl)nc1OCc1cc(C#N)cc(C#N)c1)C(=O)O [Compound 27] | 30.6 nM | 0.312 nM | 155 nM |
| COc1nc(-c2cccc(-c3cccc(-c4nc5c(s4)CCNC5)c3Cl)c2Cl)ccc1CNC[C@@H]1CCC(=O)N1 [Compound 36] | 256 nM | 0.588 nM | 142 nM |
| CNC(=O)NC1CNCc2cc(-c3cccc(-c4cccc(-c5ccc(CNC[C@@H]6CCC(=O)N6)c(OC)n5)c4Cl)c3Cl)ccc21 (stereo partly drawn) [Compound 12] | 55.3 nM | 0.17 nM | 165 nM |
| Cc1c(COc2nc(OCc3cncc(C#N)c3)c(CN[C@@](C)(CO)C(=O)O)cc2Cl)cccc1-c1cccc(-c2ccc3c(c2)CNC(COC(=O)NCCO)C3)c1C (stereo partly drawn) [Compound 25] | 53.5 nM | 0.064 nM | 108 nM |
| Cc1c(COc2cc(OCc3cc(Cl)cc(C#N)c3)c(CN[C@@](C)(CO)C(=O)O)cc2Cl)cccc1-c1cccc(-c2ccc3c(c2)CNCC3)c1C [Compound 7] | 75 nM | 0.955 nM | 142 nM |
